Test results reported in patent publication US9474790B2, “Stable, protracted GLP-1/glucagon receptor co-agonists for medical use” (Novo Nordisk A/S, priority 2013, dated 2016).
Numbered stars: 1 amine (or outer) side, 2 acyl side, 3 side chain; on linkers, the order of the positions; unused ones are H or OH. Square brackets hold non-standard residues; d marks the D form. Side chains are listed from the residue outwards. Peptide text beside a SMILES is read from it. * marks the point of attachment. C18 diacid = O=C(O)CCCCCCCCCCCCCCCCC(=O)*; γGlu = O=C(O)[C@H](CCC(=O)[*:2])N[*:1]; Ac4c = NC1(C(=O)O)CCC1; AEEA = NCCOCCOCC(=O)O; Aib = CC(C)(N)C(=O)O

These compounds were tested against T1, human GLP-1 receptor (Homo sapiens, UniProt P43220) (assay: GLP-1 receptor binding, 125I-GLP-1 displacement SPA on isolated membranes). Conditions: displacement of 125I-GLP-1 from membranes; read-out: IC50 GLP-1R.
T1 construct: expressed in transfected cells; host or cells: BHK cells (parent BHKTS13), clone FCW467-12A/KZ10-1, with CRE luciferase
How it was run: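 SPA displacement of 125I-GLP-1(7-36)NH2 from membranes of BHK cells expressing human GLP-1 receptor, with WGA beads, in 50 mM HEPES, 5 mM EGTA, 5 mM MgCl2, 0.005% Tween 20, pH 7.4. Incubated 2 h at 30°C; IC50 by non-linear regression, run at ≤0.001% or 2.0% final serum albumin.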

T1 sequence (P43220 24-463): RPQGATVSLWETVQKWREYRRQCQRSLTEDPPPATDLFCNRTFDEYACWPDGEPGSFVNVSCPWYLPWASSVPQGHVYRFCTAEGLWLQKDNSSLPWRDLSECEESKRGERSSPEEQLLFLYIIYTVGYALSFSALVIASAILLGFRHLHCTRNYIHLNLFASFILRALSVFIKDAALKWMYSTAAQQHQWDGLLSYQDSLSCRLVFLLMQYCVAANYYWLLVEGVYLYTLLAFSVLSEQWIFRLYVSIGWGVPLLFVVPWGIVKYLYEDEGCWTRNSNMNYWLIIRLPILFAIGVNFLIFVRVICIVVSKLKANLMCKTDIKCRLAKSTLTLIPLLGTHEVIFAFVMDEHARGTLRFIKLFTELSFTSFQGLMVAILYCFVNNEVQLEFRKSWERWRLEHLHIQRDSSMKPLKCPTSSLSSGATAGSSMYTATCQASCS

SMILES	IC50
CC(C)C[C@H](NC(=O)[C@H](Cc1ccc(O)cc1)NC(=O)[C@H](CCCNC(=N)N)NC(=O)[C@H](CO)NC(=O)[C@H](CC(C)C)NC(=O)[C@H](CC(=O)O)NC(=O)[C@H](CO)NC(=O)[C@@H](NC(=O)[C@H](Cc1ccccc1)NC(=O)[C@@H](NC(=O)CNC(=O)[C@H](CCC(N)=O)NC(=O)C1(NC(=O)[C@@H](N)Cc2c[nH]cn2)CCC1)[C@@H](C)O)[C@@H](C)O)C(=O)N[C@@H](CCC(=O)O)C(=O)N[C@@H](CO)C(=O)N[C@@H](CCCNC(=N)N)C(=O)N[C@@H](CCCNC(=N)N)C(=O)N[C@@H](C)C(=O)N[C@@H](CCCNC(=N)N)C(=O)N[C@@H](CCC(=O)O)C(=O)N[C@@H](Cc1ccccc1)C(=O)N[C@H](C(=O)N[C@@H](CCC(N)=O)C(=O)N[C@@H](Cc1c[nH]c2ccccc12)C(=O)N[C@@H](CC(C)C)C(=O)N[C@@H](CC(C)C)C(=O)N[C@@H](CCCCNC(=O)CC[C@H](NC(=O)CC[C@H](NC(=O)COCCOCCNC(=O)COCCOCCNC(=O)CC[C@H](NC(=O)CC[C@H](NC(=O)CCCCCCCCCCCCCCCCC(=O)O)C(=O)O)C(=O)O)C(=O)O)C(=O)O)C(=O)N[C@H](C(N)=O)[C@@H](C)O)C(C)C [Example 59, N^ε28-[(4S)-4-carboxy-4-[[(4S)-4-carboxy-4-[[2-[2-[2-[[2-[2-[2-[[(4S)-4-carboxy-4-[[(4S)-4-carboxy-4-(17-carboxyheptadecanoylamino)butanoyl]amino]butanoyl]amino]ethoxy]ethoxy]acetyl]amino]ethoxy]ethoxy]acetyl]amino]butanoyl]amino]butanoyl]-[Acb2,Leu10,Arg12,Glu15,Arg20,Glu21,Leu27,Lys28]-Glucagon amide] (H-H[Ac4c]QGTFTSDLSRYLESRRAREFVQWLLK([γGlu-γGlu-AEEA-AEEA-γGlu-γGlu-C18 diacid])T-NH2; N-terminus assumed)	0.2 nM
CC(C)C[C@H](NC(=O)[C@H](Cc1ccc(O)cc1)NC(=O)[C@H](CCCCN)NC(=O)[C@H](CO)NC(=O)[C@H](CC(C)C)NC(=O)[C@H](CC(=O)O)NC(=O)[C@H](CO)NC(=O)[C@@H](NC(=O)[C@H](Cc1ccccc1)NC(=O)[C@@H](NC(=O)CNC(=O)[C@H](CCC(N)=O)NC(=O)C(C)(C)NC(=O)[C@@H](N)Cc1c[nH]cn1)[C@@H](C)O)[C@@H](C)O)C(=O)N[C@@H](CCC(=O)O)C(=O)N[C@@H](CO)C(=O)N[C@@H](CCCNC(=N)N)C(=O)N[C@@H](CCCNC(=N)N)C(=O)N[C@@H](C)C(=O)N[C@@H](CCCNC(=N)N)C(=O)N[C@@H](CCC(=O)O)C(=O)N[C@@H](Cc1ccccc1)C(=O)N[C@H](C(=O)N[C@@H](CCC(N)=O)C(=O)N[C@@H](Cc1c[nH]c2ccccc12)C(=O)N[C@@H](CC(C)C)C(=O)N[C@@H](CC(C)C)C(=O)N[C@@H](CCCCNC(=O)CC[C@H](NC(=O)CC[C@H](NC(=O)COCCOCCNC(=O)COCCOCCNC(=O)CC[C@H](NC(=O)CC[C@H](NC(=O)CCCCCCCCCCCCCCCCC(=O)O)C(=O)O)C(=O)O)C(=O)O)C(=O)O)C(=O)N[C@H](C(N)=O)[C@@H](C)O)C(C)C [Example 60, N^ε28-[(4S)-4-carboxy-4-[[(4S)-4-carboxy-4-[[2-[2-[2-[[2-[2-[2-[[(4S)-4-carboxy-4-[[(4S)-4-carboxy-4-(17-carboxyheptadecanoylamino)butanoyl]amino]butanoyl]amino]ethoxy]ethoxy]acetyl]amino]ethoxy]ethoxy]acetyl]amino]butanoyl]amino]butanoyl]-[Aib2,Leu10,Glu15,Arg20,Glu21,Leu27,Lys28]-Glucagon amide] (H-H[Aib]QGTFTSDLSKYLESRRAREFVQWLLK([γGlu-γGlu-AEEA-AEEA-γGlu-γGlu-C18 diacid])T-NH2; N-terminus assumed)	0.2 nM
CC(C)C[C@H](NC(=O)[C@H](Cc1ccc(O)cc1)NC(=O)[C@H](CCCCN)NC(=O)[C@H](CO)NC(=O)[C@H](CC(C)C)NC(=O)[C@H](CC(=O)O)NC(=O)[C@H](CO)NC(=O)[C@@H](NC(=O)[C@H](Cc1ccccc1)NC(=O)[C@@H](NC(=O)CNC(=O)[C@H](CCC(N)=O)NC(=O)C1(NC(=O)[C@@H](N)Cc2c[nH]cn2)CCC1)[C@@H](C)O)[C@@H](C)O)C(=O)N[C@@H](CCC(=O)O)C(=O)N[C@@H](CO)C(=O)N[C@@H](CCCNC(=N)N)C(=O)N[C@@H](CCCNC(=N)N)C(=O)N[C@@H](C)C(=O)N[C@@H](CCCNC(=N)N)C(=O)N[C@@H](CCC(=O)O)C(=O)N[C@@H](Cc1ccccc1)C(=O)N[C@H](C(=O)N[C@@H](CCC(N)=O)C(=O)N[C@@H](Cc1c[nH]c2ccccc12)C(=O)N[C@@H](CC(C)C)C(=O)N[C@@H](CC(C)C)C(=O)N[C@@H](CCCCNC(=O)CC[C@H](NC(=O)CC[C@H](NC(=O)COCCOCCNC(=O)COCCOCCNC(=O)CC[C@H](NC(=O)CC[C@H](NC(=O)CCCCCCCCCCCCCCCCC(=O)O)C(=O)O)C(=O)O)C(=O)O)C(=O)O)C(=O)N[C@H](C(N)=O)[C@@H](C)O)C(C)C [Example 61, N^ε28-[(4S)-4-carboxy-4-[[(4S)-4-carboxy-4-[[2-[2-[2-[[2-[2-[2-[[(4S)-4-carboxy-4-[[(4S)-4-carboxy-4-(17-carboxyheptadecanoylamino)butanoyl]amino]butanoyl]amino]ethoxy]ethoxy]acetyl]amino]ethoxy]ethoxy]acetyl]amino]butanoyl]amino]butanoyl]-[Acb2,Leu10,Glu15,Arg20,Glu21,Leu27,Lys28]-Glucagon amide] (H-H[Ac4c]QGTFTSDLSKYLESRRAREFVQWLLK([γGlu-γGlu-AEEA-AEEA-γGlu-γGlu-C18 diacid])T-NH2; N-terminus assumed)	0.3 nM
CC(C)C[C@H](NC(=O)[C@H](Cc1ccc(O)cc1)NC(=O)[C@H](CCCNC(=N)N)NC(=O)[C@H](CO)NC(=O)[C@H](CC(C)C)NC(=O)[C@H](CC(=O)O)NC(=O)[C@H](CO)NC(=O)[C@@H](NC(=O)[C@H](Cc1ccccc1)NC(=O)[C@@H](NC(=O)CNC(=O)[C@H](CCC(N)=O)NC(=O)C(C)(C)NC(=O)[C@@H](N)Cc1c[nH]cn1)[C@@H](C)O)[C@@H](C)O)C(=O)N[C@@H](CC(=O)O)C(=O)N[C@@H](C)C(=O)N[C@@H](CCCNC(=N)N)C(=O)N[C@@H](CCCNC(=N)N)C(=O)N[C@@H](C)C(=O)N[C@@H](CCCNC(=N)N)C(=O)N[C@@H](CC(=O)O)C(=O)N[C@@H](Cc1ccccc1)C(=O)N[C@H](C(=O)N[C@@H](CCC(N)=O)C(=O)N[C@@H](Cc1c[nH]c2ccccc12)C(=O)N[C@@H](CC(C)C)C(=O)N[C@@H](CC(C)C)C(=O)N[C@@H](CCCCNC(=O)CC[C@H](NC(=O)CC[C@H](NC(=O)CC[C@H](NC(=O)CCCCCCCCCCCCCCCCC(=O)O)C(=O)O)C(=O)O)C(=O)O)C(=O)N[C@H](C(N)=O)[C@@H](C)O)C(C)C [Example 62, N^ε28-[(4S)-4-carboxy-4-[[(4S)-4-carboxy-4-[[(4S)-4-carboxy-4-(17-carboxyheptadecanoylamino)butanoyl]amino]butanoyl]amino]butanoyl]-[Aib2,Leu10,Arg12,Ala16,Arg20,Leu27,Lys28]-Glucagon amide] (H-H[Aib]QGTFTSDLSRYLDARRARDFVQWLLK([γGlu-γGlu-γGlu-C18 diacid])T-NH2; N-terminus assumed)	0.2 nM
CC(C)C[C@H](NC(=O)[C@H](Cc1ccc(O)cc1)NC(=O)[C@H](CCCCN)NC(=O)[C@H](CO)NC(=O)[C@H](CC(C)C)NC(=O)[C@H](CC(=O)O)NC(=O)[C@H](CO)NC(=O)[C@@H](NC(=O)[C@H](Cc1ccccc1)NC(=O)[C@@H](NC(=O)CNC(=O)[C@H](CCC(N)=O)NC(=O)C(C)(C)NC(=O)[C@@H](N)Cc1c[nH]cn1)[C@@H](C)O)[C@@H](C)O)C(=O)N[C@@H](CC(=O)O)C(=O)N[C@@H](C)C(=O)N[C@@H](CCCNC(=N)N)C(=O)N[C@@H](CCCNC(=N)N)C(=O)N[C@@H](C)C(=O)N[C@@H](CCCNC(=N)N)C(=O)N[C@@H](CC(=O)O)C(=O)N[C@@H](Cc1ccccc1)C(=O)N[C@H](C(=O)N[C@@H](CCC(N)=O)C(=O)N[C@@H](Cc1c[nH]c2ccccc12)C(=O)N[C@@H](CC(C)C)C(=O)N[C@@H](CC(C)C)C(=O)N[C@@H](CC(N)=O)C(=O)N[C@@H](CCCCNC(=O)CC[C@H](NC(=O)CC[C@H](NC(=O)COCCOCCNC(=O)COCCOCCNC(=O)CC[C@H](NC(=O)CCCCCCCCCCCCCCCCC(=O)O)C(=O)O)C(=O)O)C(=O)O)C(N)=O)C(C)C [Example 65] (H-H[Aib]QGTFTSDLSKYLDARRARDFVQWLLNK([γGlu-γGlu-AEEA-AEEA-γGlu-C18 diacid])-NH2; N-terminus assumed)	0.5 nM
CC(C)C[C@H](NC(=O)[C@H](Cc1ccc(O)cc1)NC(=O)[C@H](CCCCN)NC(=O)[C@H](CO)NC(=O)[C@H](CC(C)C)NC(=O)[C@H](CC(=O)O)NC(=O)[C@H](CO)NC(=O)[C@@H](NC(=O)[C@H](Cc1ccccc1)NC(=O)[C@@H](NC(=O)CNC(=O)[C@H](CCC(N)=O)NC(=O)C(C)(C)NC(=O)[C@@H](N)Cc1c[nH]cn1)[C@@H](C)O)[C@@H](C)O)C(=O)N[C@@H](CC(=O)O)C(=O)N[C@@H](C)C(=O)N[C@@H](CCCNC(=N)N)C(=O)N[C@@H](CCCNC(=N)N)C(=O)N[C@@H](C)C(=O)N[C@@H](CCCNC(=N)N)C(=O)N[C@@H](CC(=O)O)C(=O)N[C@@H](Cc1ccccc1)C(=O)N[C@H](C(=O)N[C@@H](CCC(N)=O)C(=O)N[C@@H](Cc1c[nH]c2ccccc12)C(=O)N[C@@H](CC(C)C)C(=O)N[C@@H](CC(C)C)C(=O)N[C@@H](CO)C(=O)N[C@@H](CCCCNC(=O)CC[C@H](NC(=O)CC[C@H](NC(=O)COCCOCCNC(=O)COCCOCCNC(=O)CC[C@H](NC(=O)CCCCCCCCCCCCCCCCC(=O)O)C(=O)O)C(=O)O)C(=O)O)C(N)=O)C(C)C [Example 66, N^ε29-[(4S)-4-carboxy-4-[[(4S)-4-carboxy-4-[[2-[2-[2-[[2-[2-[2-[[(4S)-4-carboxy-4-(17-carboxyheptadecanoylamino)butanoyl]amino]ethoxy]ethoxy]acetyl]amino]ethoxy]ethoxy]acetyl]amino]butanoyl]amino]butanoyl]-[Aib2,Leu10,Ala16,Arg20,Leu27,Ser28,Lys29]-Glucagon amide] (H-H[Aib]QGTFTSDLSKYLDARRARDFVQWLLSK([γGlu-γGlu-AEEA-AEEA-γGlu-C18 diacid])-NH2; N-terminus assumed)	0.6 nM
